Experimental data taken from patent US8299069B2, “2-(2-oxoindoline-3-ylidene)methyl-5-(2-hydroxy-3-morpholin-4-yl-propyl)-6,7-dihydro-1H-pyrrol[3,2-C]pyridine-4(5H)-one compounds and use as protein kinase inhibitors” (Jiangsu Hengrui Medicine Co., Ltd., priority 2007, dated 2012).

Assays:
HUVEC cell = assay: Cell proliferation inhibition assay (SRB) on HUVEC cells highly expressing VEGFR; settings: Homo sapiens, 72 h, read-out: IC50 (VEGFR/HUVEC)
Description: The cellular assay described here is used to test anti-angiogenesis and proliferation inhibition activity and effect of the compounds through VEGFR on the cancer cells in vitro. The effect and activity is represented by the IC50 value that kills the cancer cells. The general procedures of the assay are as follows: The Homo sapiens cells that highly expressing VEGFR were chosen and seeded to 96-well cell culture plate at a suitable concentration (e.g., 5000 cells/mL medium). […] Then, the cell culture medium was replaced by fresh one with testing compounds added in it at serial concentrations (general 6 or 7 concentrations). Then the cells were put back to the incubator and cultured for 72 hours continuously. 72 hours later, the treated compounds were assayed for their proliferation status by using Sulforhodamine B (SRB) method. IC50 of compounds on tested cells was calculated by using data of inhibition rate of serial concentrations of the testing compounds.
The following protocol is used to assay the cell toxicity (anti-proliferation activity, which is expressed as IC50 value) of testing compounds of the invention on HUVEC cell: • 1. HUVEC cells were cultured with growth media (DMEM/F12, supplemented with 10% FBS) in 100 mm corning culture plate at 37° C., 5% CO2 till confluency. • 2. HUVEC cells were washed with cold PBS solution, then the cells were harvested by trypsinization and seeded in corning 96-well cell culture plates at a concentration of 50,000 cells/ml, 6 empty wells were left on each plate as plate background. • 3. The cells were cultured in 96-well plates at 37° C., 5% CO2, till 85% confluency. • 4. The compound stock solution was prepared by using DMSO to solve candidate compounds to a concentration of 20 mM. Then DMSO was used to dilute the stock solution to a serial concentration to prepare testing compound solution samples (e.g., 2 mM, 1 mM, 0.2 mM, 20 μM, 2 μM, 0.2 μM). • 5. Cell culture medium (DMEM/F12+10% FBS) was used to dilute the compound solution prepared previously. […] Background absorbance was measured in wells incubated only with growth medium. • 11. […]

[1] = biological target: recombinant human VEGF-R2 (Homo sapiens, UniProt P35968); assay: VEGF-R2 kinase assay (ELISA, DELFIA time-resolved fluorescence)
Sequence of recombinant human VEGF-R2 (P35968 789-1356 limits assumed): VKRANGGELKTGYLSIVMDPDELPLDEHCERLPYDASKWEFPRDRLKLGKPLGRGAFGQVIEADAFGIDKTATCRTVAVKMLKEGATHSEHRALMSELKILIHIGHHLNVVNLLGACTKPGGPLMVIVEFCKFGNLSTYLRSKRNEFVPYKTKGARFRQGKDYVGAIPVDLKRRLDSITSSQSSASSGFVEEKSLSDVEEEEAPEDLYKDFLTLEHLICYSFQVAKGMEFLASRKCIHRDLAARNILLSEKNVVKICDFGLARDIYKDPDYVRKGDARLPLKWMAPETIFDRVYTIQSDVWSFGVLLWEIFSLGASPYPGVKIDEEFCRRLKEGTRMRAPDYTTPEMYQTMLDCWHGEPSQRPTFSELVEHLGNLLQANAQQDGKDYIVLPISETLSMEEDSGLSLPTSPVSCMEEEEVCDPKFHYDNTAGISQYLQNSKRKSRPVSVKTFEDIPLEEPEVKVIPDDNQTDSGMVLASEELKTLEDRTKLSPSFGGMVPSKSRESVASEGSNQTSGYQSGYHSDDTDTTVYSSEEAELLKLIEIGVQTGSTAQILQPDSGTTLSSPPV
Protocol: This assay is used to measure the in vitro kinase activity of recombinant human VEGF-R2 in an enzyme-linked immunosorbent assay (ELISA).
• a. […] Stopping solution: 50 mM EDTA, pH 8.0. • d. DELFIA® Europium-labeled Anti-mouse IgG (PerkinElmer Life Sciences #AD0124). • e. […] DELFIA® Streptavidin coated, 96-well, yellow plate (PerkinElmer Life Sciences #AAAND-0005). • g. Recombinant human VEGFR-2 kinase (supplied in 50 mM Tris-HCl, pH8.0, 100 mM NaCl, 5 mM DTT, 15 mM reduced glutathione and 20% glycerol). […] HTScan™ Tyrosine Kinase Buffer (4×). • 1× Kinase Buffer: • 60 mM HEPES • 5 mM MgCl2 • 5 mM MnCl2 • 3 μM Na3VO4 • l. […] Procedure
The following protocol was used: • 1. […] VEGFR-2 kinase was transferred from −80° C. to ice immediately, and the kinase was thawed on ice. • 4. 2.2 μs VEGFR-2 enzyme was added to enzyme tube. • 5. […] 0.75 ml of DTT/Kinase buffer was transferred to the enzyme tube to prepare 4× reaction cocktail, and 7.5 μl 4× reaction cocktail was added to each assay. • 7. 2 μl ATP (10 mM) was added to 498 μl dH2O, and 7.5 μl was added to each assay. […] The reaction tube was incubated at 25° C. for 30 minutes. • 9. 30 μl/assay stopping solution (50 mM EDTA, pH 8.0) was added to stop the reaction. • 10. 25 μl of each reaction and 75 μl dH2O were transferred to a 96-well streptavidin coated plate, with shaking at room temperature for 60 minutes. • 11. Each well was washed for three times with 200 μl PBS-T buffer. Plate was patted on paper towel to remove excess liquid. • 12. […] The plate was incubated with shaking at room temperature for 60 minutes. • 14. Washing step was carried out as described in step 11. • 15. […] The plate was incubated with shaking at room temperature for 30 minutes. • 17. Each well was washed for five times with 200 μl PBS-T buffer. Plate was patted on paper towel to remove excess liquid. • 18. 100 μl DELFIA® Enhancement Solution was added to each well. • 19. The plate was incubated with shaking at room temperature for 5 minutes. • 20. The fluorescence intensity was detected at wavelength of 615 nm in a time-resolved fluorescence mode on plate reader.
The IC50 value can be calculated from the IRs of compounds at different concentration gradients.

| IC50 [1] | SMILES | IC50 (HUVEC cell) |
| --- | --- | --- |
| 3 nM | Cc1c(/C=C2\C(=O)Nc3cc(NC(=O)C(C)(C)O)c(F)cc32)[nH]c2c1C(=O)N(C[C@@H](O)CN1CCOCC1)CC2 [Example 11, (S,Z)-N-{5-Fluoro-3[5-(2-hydroxy-3-morpholin-4-yl-propyl)-3-methyl-4-oxo-4,5,6,7-tetrahydro-1H-pyrrolo[3,2-c]pyridin-2-ylmethylene]-2-oxo-2,3-dihydro-1H-indol-6-yl}-2-hydroxy-2-methyl-propionamide] |  |
| 130 nM | COCC(=O)Nc1cc2c(cc1F)/C(=C/c1[nH]c3c(c1C)C(=O)N(C[C@@H](O)CN1CCOCC1)CC3)C(=O)N2 [Example 13, (S,Z)-N-{5-Fluoro-3-[5-(2-hydroxy-3-morpholin-4-yl-propyl)-3-methyl-4-oxo-4,5,6,7-tetrahydro-1H-pyrrolo[3,2-c]pyridin-2-ylmethylene]-2-oxo-2,3-dihydro-1H-indol-6-yl}-2-methoxy-acetamide] |  |
| 110 nM | COCC(=O)Nc1cc2c(cc1F)/C(=C/c1[nH]c3c(c1C)C(=O)N(C[C@H](O)CN1CCOCC1)CC3)C(=O)N2 [Example 16, (R,Z)-N-{5-Fluoro-3-[5-(2-hydroxy-3-morpholin-4-yl-propyl)-3-methyl-4-oxo-4,5,6,7-tetrahydro-1H-pyrrolo[3,2-c]pyridin-2-ylmethylene]-2-oxo-2,3-dihydro-1H-indol-6-yl}-2-methoxy-acetamide] |  |
| 4 nM | Cc1c(/C=C2\C(=O)Nc3cc(NC(=O)C(C)(C)O)c(F)cc32)[nH]c2c1C(=O)N(C[C@H](O)CN1CCOCC1)CC2 [Example 17, (R,Z)-N-{5-Fluoro-3-[5-(2-hydroxy-3-morpholin-4-yl-propyl)-3-methyl-4-oxo-4,5,6,7-tetrahydro-1H-pyrrolo[3,2-c]pyridin-2-ylmethylene]-2-oxo-2,3-dihydro-1H-indol-6-yl}-2-hydroxy-2-methyl-propionamide] |  |

More lines, now with the values behind:

| SMILES | IC50 [1] | IC50 (HUVEC cell) |
| --- | --- | --- |
| Cc1c(/C=C2\C(=O)Nc3ccc(Cl)cc32)[nH]c2c1C(=O)N(C[C@H](O)CN1CCOCC1)CC2 [Example 2, (R,Z)-2-(5-Chloro-2-oxo-1,2-dihydro-indol-3-ylidenemethyl)-5-(2-hydroxy-3-morpholin-4-yl-propyl)-3-methyl-1,5,6,7-tetrahydro-pyrrolo[3,2-c]pyridin-4-one] |  | 2400 nM |
| Cc1c(/C=C2\C(=O)Nc3cccc(-c4cccc(F)c4F)c32)[nH]c2c1C(=O)N(C[C@H](O)CN1CCOCC1)CC2 [Example 3, 2-[(Z)-4-(2,3-Difluoro-phenyl)-2-oxo-1,2-dihydro-indol-3-ylidenemethyl]-5-[(R)-2-hydroxy-3-morpholin-4-yl-propyl]-3-methyl-1,5,6,7-tetrahydro-pyrrolo[3,2-c]pyridin-4-one] |  | 840 nM |
| Cc1c(/C=C2\C(=O)Nc3ccc(Br)cc32)[nH]c2c1C(=O)N(C[C@H](O)CN1CCOCC1)CC2 [Example 4, (R,Z)-2-(5-Bromo-2-oxo-1,2-dihydro-indol-3-ylidenemethyl)-5-(2-hydroxy-3-morpholin-4-yl-propyl)-3-methyl-1,5,6,7-tetrahydro-pyrrolo[3,2-c]pyridin-4-one] | 998 nM |  |
| Cc1c(/C=C2\C(=O)Nc3cccc(-c4c(F)cccc4F)c32)[nH]c2c1C(=O)N(C[C@@H](O)CN1CCOCC1)CC2 [Example 20, (S,Z)-2-[4-(2,6-Difluoro-phenyl)-2-oxo-1,2-dihydro-indol-3-ylidenemethyl]-5-(2-hydroxy-3-morpholin-4-yl-propyl)-3-methyl-1,5,6,7-tetrahydro-pyrrolo[3,2-c]pyridin-4-one] |  | 10 nM |
